The conditions of data set [1]: per 1 g of substance, crystallization as in U.S. Pat. No. 3,843,668.
For data set [2] the following is noted: per 1 g of substance, crystallization as in EP 644 192.

Where a name gives a salt, the structure may show the parent alone.

Consider `Clc1ccc2nsnc2c1NC1=NCCN1` [tizanidine base, 5-chloro-4-(2-imidazolin-2-yl-amino)-2,1,3-benzothiadiazole], for which, in data set [1], the “volume of methanol needed for dissolution of 1 g” value was “at least 37 ml”.

For `Clc1ccc2nsnc2c1NC1=NCCN1` [tizanidine hydrochloride], the “volume of ethanol needed for dissolution of 1 g” value in data set [2] was “at least 43 ml”.
